# Several values for one entry are separate records, joined by “and”; a condition that tells them apart may be missing. Equal values may be shown once. Read-outs that look alike come from different tables or passages of the source.
# Columns and labels:
# Format in all cases: cell-based
# [1] = system: HDMB03 (HDMBO3) group 3 medulloblastoma cells; test: CellTiter-Glo dose-response growth assay; conditions: for normalized growth (fraction of control), replicate values: HDMBO3, log10[compound]; for IC50: Homo sapiens
# Summary of the method: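 Growth of the G3MB line HDMB03 was assessed across compound concentrations. Cells went into 384-well plates at 500 cells per well in growth medium and were exposed to compound for the indicated time. A CellTiter-Glo luminescence assay, run per manufacturer instructions and read on an Envision 2104 instrument, quantified remaining cell growth.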
# [2] = system: MB002 group 3 medulloblastoma cells; test: CellTiter-Glo dose-response growth assay; conditions: for IC50: MB002, 72 h, day 3, read-out: d3 IC50 MB002; for normalized growth (fraction of control), replicate values: MB002, log10[compound]
# Summary of the method: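 This is a dose-response growth assay in MB002 cells, a group 3 medulloblastoma line. Cells were plated at 500 cells/well in 384-well plates containing growth media and treated with compound over a concentration series. After the noted incubation period, CellTiter-Glo reagent was applied per the manufacturer's protocol and luminescence was read on an Envision 2104 microplate reader.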
# HDMB03 (HDMBO3) cells = test: ERCC spike-in RNAseq gene expression after 6 h treatment; conditions: HDMBO3, replicate values, Supplementary Fig 6c
# Protocol: (§1) First, we examined global changes in gene expression induced by drug treatment.
# (§2) External RNA consortium control RNAs (ERCC, Ambion) were added directly to Trizol, based on cell number prior to RNA extraction. RNA samples were treated with DNAse I (Invitrogen) prior to recovery. Samples were obtained in biological triplicate. Total RNA was subjected to ribosomal RNA depletion prior to library preparation using the Truseq Stranded Total Library Prep Kit (Illumina) and sequencing on a Nextseq-500 (paired end, 100 bp reads).
# (§3) Sequences were aligned using HISAT2 (version 2.1.0)[77] in paired-end mode with default parameters to build version hg19 of the human genome to which the sequences of the ERCC synthetic spike-in RNAs (http://tools.invitrogen.com/downloads/ERCC92.fa) had been added. Per-gene expression was quantified using htseq-count[78] with parameters “-i gene_id --stranded=reverse -f bam -m,” and version 87 of the canonical GRCh37 gene list from RefSeq to which ERCC coordinates were added. TPM-normalized (Transcripts Per Million) expression was then computed for each gene and synthetic ERCC spike-in RNA. Per-gene exon length was calculated across all exons of all isoforms of each gene. The standard TPM-normalization strategy is: normterm = sum of (read count * read length/exon length) across all genes. TPM = read count * read length/exon length * 1e6/normterm. We used a loess regression to normalize the TPM values across all samples of the batch, using only the spike-in values to fit the loess by the “affy” R package[79] with function loess.normalize. This function allowed us to perform loess regression on a matrix of TPM values and used the ERCC subset of data for fitting the loess. The output from this was a matrix of normalized TPM values controlled by ERCC spike-ins.
# (§4) We used the elbow method[81] to determine the k value in k-means cluster analysis.
# (§5) Dependency analysis was performed using the 22Q4 release of the DepMap dataset, comprising seven medulloblastoma cell lines: UW228, DAOY, ONS76, D458, D425, D283MED, D341MED. Dependency was defined as a Chronos gene effect score of <−0.5, and gene lists were filtered for dependency in >2/7 medulloblastoma cell lines. […] PANTHER was used to define gene annotations, with unknown annotations assigned using individual assessment using the Genecards.org resource.
# MB002 cells = test: as above; conditions: MB002, replicate values, Supplementary Fig 6c
# Protocol: as §1, §2, §3, §4, §5
# [3] = HD-MB03, 72 h, day 3, read-out: d3 IC50 HDMBO3
Compound,"normalized growth (fraction of control), replicate values ([1]; M = -4.7)","normalized growth (fraction of control), replicate values ([1]; M = -5.21)","normalized growth (fraction of control), replicate values ([1]; M = -5.73)","normalized growth (fraction of control), replicate values ([1]; M = -6.25)","normalized growth (fraction of control), replicate values ([1]; M = -6.76)","normalized growth (fraction of control), replicate values ([1]; M = -7.28)","normalized growth (fraction of control), replicate values ([1]; M = -7.79)","normalized growth (fraction of control), replicate values ([1]; M = -8.31)","normalized growth (fraction of control), replicate values ([1]; M = -8.82)","IC50 [1, 3] [nM]","IC50 ([1]; HD-MB03, HDMBO3 G3MB cell growth, read-out: IC50 (nM) HDMBO3) [nM]",IC50 [2] [nM],"normalized growth (fraction of control), replicate values ([2]; M = -4.7)","normalized growth (fraction of control), replicate values ([2]; M = -5.21)","normalized growth (fraction of control), replicate values ([2]; M = -5.73)","normalized growth (fraction of control), replicate values ([2]; M = -6.25)","normalized growth (fraction of control), replicate values ([2]; M = -6.76)","normalized growth (fraction of control), replicate values ([2]; M = -7.28)",Normalized MYC expression (HDMB03 (HDMBO3) cells),Normalized MYC expression (MB002 cells)
CO[C@H]1CC[C@H](n2c([C@@H]3CCCC(=O)N3c3ccc(F)c(F)c3)nc3cc(-c4c(C)noc4C)ccc32)CC1 [CCS1477],0.042 and 0.025 and 0.028 and 0.036 and 0.035 and 0.041 and 0.053 (2×) and 0.048 and 0.054 and 0.043 and 0.052,0.044 and 0.033 (2×) and 0.034 and 0.036 and 0.027 and 0.037 and 0.05 and 0.032 and 0.029 and 0.031 and 0.04,0.036 and 0.028 and 0.032 and 0.05 and 0.027,0.073 and 0.039 (2×) and 0.064 (2×) and 0.053 and 0.055 and 0.069 and 0.061 and 0.031 and 0.047 and 0.041,0.122 and 0.123 and 0.093 and 0.099 and 0.112 and 0.108 and 0.113 and 0.078 and 0.09 and 0.094 and 0.079 and 0.066,0.344 and 0.279 and 0.281 and 0.294 and 0.307 and 0.364 and 0.263 and 0.244 and 0.257 and 0.231 and 0.199 and 0.251,0.653 and 0.647 and 0.598 and 0.634 and 0.582 and 0.697 and 0.7 and 0.556 and 0.819 and 0.469 and 0.726 and 0.588,0.976 and 1.03 and 0.907 and 0.959 and 0.846 and 0.924 and 0.949 and 0.892 and 1.092 and 1.013 and 0.868,1.054 and 0.933 and 1.006 and 0.821 and 1.079 and 1.062 and 1.187 and 0.91 and 1.023 (2×) and 0.934 and 0.969,39,82 ± 32,1280,0.021 and 0.012 (2×) and 0.014 and 0.011 (7×) and 0.01 (2×) and 0.007 (2×) and 0.009 (3×),0.053 and 0.051 and 0.056 (2×) and 0.055 and 0.067 (4×) and 0.062 and 0.069 and 0.07 and 0.077 and 0.073 and 0.064 and 0.08 and 0.074 and 0.061,0.176 and 0.2 and 0.173 (2×) and 0.221 and 0.192 and 0.209 and 0.163 and 0.174 and 0.198 and 0.167 and 0.182 and 0.161 and 0.164 and 0.153 and 0.149 and 0.147 and 0.172,0.427 and 0.39 and 0.435 and 0.48 and 0.521 and 0.536 and 0.339 and 0.326 and 0.323 and 0.364 and 0.327 and 0.314 and 0.325 and 0.273 (2×) and 0.287 (2×) and 0.391,0.571 and 0.619 and 0.593 and 0.57 (2×) and 0.624 and 0.745 and 0.543 and 0.601 and 0.505 and 0.54 and 0.511 and 0.346 and 0.471 and 0.506 and 0.447 and 0.463 and 0.363,0.767 and 0.779 and 0.746 and 0.805 and 0.733 and 1.069 and 0.749 and 0.742 and 0.816 and 0.687,0.5957 and 0.4799 and 0.4227,0.3944 and 0.5851 and 0.5892
CNC(=O)Nc1ccc2c(c1)CCC21OC(=O)N(CC(=O)N(Cc2ccc(F)cc2)C(C)C(F)(F)F)C1=O (stereo not drawn) [Compound A485],,,,,,,,,,400,,1970,,,,,,,0.9151 and 0.6386 and 0.4867,0.2801 and 0.5062 and 0.4843

# Reference: publication PMC11045757, “Group 3 medulloblastoma transcriptional networks collapse under domain specific EP300/CBP inhibition” (Nature Communications, 2024)
